Assay results as given in patent US4339378A, “N-Acylcarnosine aluminum salts” (Nippon Chemiphar Co., Ltd., priority 1979, dated 1982).

Legend:
Format in all cases: in vivo, male Donryu strain rats
Shay's ulcer in rats = test: Shay's ulcer (pylorus ligation) in rats; settings: for Ulcer index: total ulcerated area in forestomach
Method: Shay's ulcer: Groups of ten male Donryu strain rats each weighing 210 to 230 g were deprived of food for 48 hours. The pylorus of each rat was ligated according to the method of Shay et al [Gastroenterology, 5, 43-61 (1945)]. Each of the animals was allowed to stand abstained from food and water for further 14 hours and then sacrificed to remove its stomach. After collection of the gastric juice, the ulcerated area (mm^2) in the forestomach of each rat was measured under a dissecting microscope (10×). The total area (mm^2) of all the lesions of each rat was indicated as an ulcer index. Test medicine samples were given orally immediately after the pylorus ligation.

[1] = tested on: Indomethacin-induced ulcer in rats; test: Indomethacin-induced ulcer in rats; settings: 300 mg/kg P.O., indomethacin 25 mg/kg s.c.; for Ulcer index: total lesion length, control 16.3 ± 2.4
Method: Indomethacin-induced ulcer: Groups of ten male Donryu strain rats each weighing 200 to 215 g were deprived of food for 24 hours. Then, the pylorus was ligated under ether anethesia, after which indomethacin was administered subcutaneously in an amount of 25 mg/kg to each rat. Seven hours after the administration, each of the animals was sacrificed under ether anethesia to remove its stomach, followed by immersion in a 1% formalin solution for ten minutes. The stomach which had been semi-fixed was incised along its greater curvature, and the length (mm) of each lesion formed in the mucous membrane was measured under a dissecting microscope (10×). The total length (mm) of all the lesions of each rat was indicated as an ulcer index. Test medicine samples were given orally ten minutes before the pylorus logation.

[2] = tested on: Histamine-induced ulcer in rats; test: Histamine-induced ulcer in rats; settings: 300 mg/kg P.O., histamine phosphate 300 mg/kg i.p.; for Ulcer index: total lesion length, control 24.1 ± 4.7
Method: Histamine-induced ulcer: Groups of ten male Donryu strain rats each weighing 210 to 230 g were deprived of food for 48 hours and then administered intraperitoneally with histamine phosphate (300 mg/kg). Four hours after the administration, each of the animals was sacrificed under ether anesthesia, followed by removal of its stomach and immersion in a 1% formalin solution for ten minutes. The stomach which had been semi-fixed was incised along the greater curvature, and the length (mm) of each lesion was measured under a dissecting microscope (10×). The total length (mm) of all the lesions of each rat was indicated as an ulcer index. Test medicine samples were given orally before the histamine administration.

Stress ulcer in rats = test: Stress ulcer (restraint and water immersion) in rats; settings: for Ulcer index: total lesion length in glandular portion, control 15.2 ± 3.2
Method: Stress ulcer: Groups of ten male Donryu strain rats each weighing 240 to 260 g were placed in a stress cage which served to immobilize the animals therein and then immersed in a water bath of 23° C. on a level with the xiphoid process according to the method of K. Takagi et al [Jap. J. Pharmac., 18 (9), 9-19 (1968)], thereby imposing stress on each rat. Seven hours after the immersion, each of the animals was withdrawn from the water bath and immediately sacrificed by a blow on the head, followed by removal of the stomach of each rat. The stomach was slightly inflated by injecting a 1% formalin solution and then immediately immersed in a 1% formalin solution, followed by incising the stomach along its greater curvature to measure the length (mm) of each lesion in the glandular portion under a dissecting microscope (10×). The total length (mm) of all the lesions of each rat was indicated as an ulcer index. Test medicine samples were given orally ten minutes before the immersion in water.

[3] = tested on: Aspirin-induced ulcer in rats; test: Aspirin-induced ulcer in rats; settings: 1,000 mg/kg P.O., aspirin 100 mg/kg; for Ulcer index: total lesion length, control 17.7 ± 2.3
Method: Aspirin-induced ulcer: Groups of ten male Donryu strain rats each weighing 220 to 230 g were deprived of food for 24 hours. The pylorus of each rat was ligated under ether anethesia according to the method of S. Okabe et al [Jap. J. Pharmac. 24, 357-361 (1974)]. After the pylorus ligation, aspirin (100 mg/kg) was administered orally to each rat. Seven hours after the administration, each of the animals was sacrificed under ether anesthesia to remove its stomach. After collection of the gastric juice and treatment with a 1% formalin solution, the length (mm) of each lesion formed in the glandular portion was measured. The total length (mm) of all the lesions of each rat was indicated as an ulcer index. Test medicine samples were given orally immediately after the pylorus ligation.

[4] = 1,000 mg/kg P.O., second series (control 2.9 ± 0.4)
[5] = 1,000 mg/kg P.O., first series (control 2.4 ± 0.7)
[6] = 2,000 mg/kg P.O., second series (control 2.9 ± 0.4)

Compound: N-acetyl-L-carnosine aluminum salt [B]
- % Inhibition (Shay's ulcer in rats; [4]): 79.3%
- Ulcer index (Shay's ulcer in rats; [4]): 0.6 ± 0.8 mm^2

Compound: NCCC(=O)N[C@@H](Cc1cnc[nH]1)C(=O)O [L-Carnosine, L-carnosine]
- % Inhibition (Shay's ulcer in rats; [5]): 12.5%
- Ulcer index (Shay's ulcer in rats; [5]): 2.1 ± 0.7 mm^2
- % Inhibition [1]: ~ 0%
- Ulcer index [1]: 17.3 ± 3.0 mm
- % Inhibition [2]: 28.2%
- Ulcer index [2]: 17.3 ± 3.2 mm
- % Inhibition (Stress ulcer in rats; 300 mg/kg P.O.): 6.6%
- Ulcer index (Stress ulcer in rats; 300 mg/kg P.O.): 14.2 ± 3.7 mm
- % Inhibition (Stress ulcer in rats; 1,000 mg/kg P.O.): 29.6%
- Ulcer index (Stress ulcer in rats; 1,000 mg/kg P.O.): 10.7 ± 2.2 mm

Compound: N-acetylcarnosine aluminum salt
- % Inhibition [3]: 96.0%
- Ulcer index [3]: 0.7 ± 0.6 mm
- % Inhibition (Shay's ulcer in rats; [5]): 80.4%
- Ulcer index (Shay's ulcer in rats; [5]): 0.47 ± 0.4 mm^2
- % Inhibition [1]: 63.2%
- Ulcer index [1]: 6.0 ± 2.4 mm
- % Inhibition [2]: 61.0%
- Ulcer index [2]: 9.4 ± 2.0 mm
- % Inhibition (Stress ulcer in rats; 300 mg/kg P.O.): 46.7%
- Ulcer index (Stress ulcer in rats; 300 mg/kg P.O.): 8.1 ± 2.9 mm
- % Inhibition (Stress ulcer in rats; 1,000 mg/kg P.O.): 70.4%
- Ulcer index (Stress ulcer in rats; 1,000 mg/kg P.O.): 4.5 ± 2.4 mm

Compound: aluminum sucrose sulfate
- % Inhibition [3]: 79.1%
- Ulcer index [3]: 3.7 ± 2.1 mm
- % Inhibition (Shay's ulcer in rats; [5]): 71.0%
- % Inhibition (Shay's ulcer in rats; [4]): 72.4%
- Ulcer index (Shay's ulcer in rats; [5]): 0.7 ± 0.8 mm^2
- Ulcer index (Shay's ulcer in rats; [4]): 0.8 ± 0.6 mm^2
- % Inhibition [1]: 52.1%
- Ulcer index [1]: 7.8 ± 3.0 mm
- % Inhibition [2]: 40.2%
- Ulcer index [2]: 14.4 ± 1.5 mm
- % Inhibition (Stress ulcer in rats; 1,000 mg/kg P.O.): 56.7%
- Ulcer index (Stress ulcer in rats; 1,000 mg/kg P.O.): 6.5 ± 6.0 mm

Compound: CC(=O)N[C@@H](CCC(N)=O)C(=O)O.[Al] [N-Acetyl-L-glutamine aluminum, N-acetyl-L-glutamine aluminum]
- % Inhibition (Shay's ulcer in rats; [6]): 69.0%
- Ulcer index (Shay's ulcer in rats; [6]): 0.9 ± 0.7 mm^2

Compound: NC(=O)CC[C@H](N)C(=O)O [L-Glutamine, L-glutamine]
- % Inhibition [3]: 66.1%
- Ulcer index [3]: 6.0 ± 2.2 mm
- % Inhibition (Shay's ulcer in rats; [5]): 8.3%
- Ulcer index (Shay's ulcer in rats; [5]): 2.2 ± 0.8 mm^2
- % Inhibition [1]: 41.8%
- Ulcer index [1]: 9.5 ± 4.1 mm
